Assay results: ChEMBL document CHEMBL1201862, “PubChem BioAssay data set” (2004)
Active and inactive are the calls of the source.

Tests used:
[1] = target: Heat shock protein HSP 90-alpha (Homo sapiens, UniProt P07900); assay: Luminescence-based dose response biochemical high throughput screening assay for inhibitors of the Heat Shock Protein 90 (HSP90). [Related pubchem assays: 1831 (Summary AID.), 1846 (Confirmation screen.), 1789 (Primary screen.)]
[2] = target: T1, Voltage-gated inwardly rectifying potassium channel KCNH2 (Homo sapiens, UniProt Q12809); assay: concentration dependence of hERG rescue from dofetilide, dose response, manual patch clamp, HEK293 cells (AID 2638); type: ADME
T1 sequence (Q12809 whole entry): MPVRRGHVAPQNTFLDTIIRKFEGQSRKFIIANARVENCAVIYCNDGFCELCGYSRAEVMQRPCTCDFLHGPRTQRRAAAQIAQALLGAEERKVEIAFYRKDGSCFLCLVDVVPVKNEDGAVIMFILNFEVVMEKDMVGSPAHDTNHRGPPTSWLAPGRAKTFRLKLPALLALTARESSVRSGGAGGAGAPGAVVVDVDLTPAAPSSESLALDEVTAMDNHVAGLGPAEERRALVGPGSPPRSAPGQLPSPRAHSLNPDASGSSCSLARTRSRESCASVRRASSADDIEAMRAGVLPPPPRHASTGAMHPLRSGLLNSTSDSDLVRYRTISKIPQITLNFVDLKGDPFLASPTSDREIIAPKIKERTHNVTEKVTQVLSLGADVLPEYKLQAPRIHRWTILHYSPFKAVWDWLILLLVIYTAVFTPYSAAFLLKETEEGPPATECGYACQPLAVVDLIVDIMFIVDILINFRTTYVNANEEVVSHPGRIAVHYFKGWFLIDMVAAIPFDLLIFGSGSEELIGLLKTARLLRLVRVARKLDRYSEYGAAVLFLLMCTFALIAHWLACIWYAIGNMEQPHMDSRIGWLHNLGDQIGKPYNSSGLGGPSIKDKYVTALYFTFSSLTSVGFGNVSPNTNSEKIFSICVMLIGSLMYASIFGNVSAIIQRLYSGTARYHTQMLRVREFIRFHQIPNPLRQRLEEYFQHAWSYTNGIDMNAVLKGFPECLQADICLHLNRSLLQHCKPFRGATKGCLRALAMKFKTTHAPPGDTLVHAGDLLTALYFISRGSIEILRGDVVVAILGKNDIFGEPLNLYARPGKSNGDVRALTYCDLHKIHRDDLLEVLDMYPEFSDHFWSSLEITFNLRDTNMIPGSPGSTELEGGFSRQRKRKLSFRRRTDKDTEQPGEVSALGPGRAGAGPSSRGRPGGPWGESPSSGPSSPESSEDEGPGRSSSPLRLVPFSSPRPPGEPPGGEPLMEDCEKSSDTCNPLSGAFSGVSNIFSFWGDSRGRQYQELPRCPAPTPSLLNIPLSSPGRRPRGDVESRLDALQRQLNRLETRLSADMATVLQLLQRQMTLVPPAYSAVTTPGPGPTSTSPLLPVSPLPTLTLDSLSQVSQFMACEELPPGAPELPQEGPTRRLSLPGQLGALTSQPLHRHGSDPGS

[3] = target: T1, Voltage-gated inwardly rectifying potassium channel KCNH2; assay: hERG protection from proarrhythmic block, potency, dose response, cell-based, thallium flux (AID 2121); type: ADME
[4] = Luminescence Cell-Based Dose Response HTS to Identify Inhibitors of 5'UTR Stem-Loop Driven Prion Protein mRNA Translation in H4 Neuroglioblastoma Cells. [Related pubchem assays: 1827 (Project Summary), 1813 (Primary HTS)]; type: functional
[5] = inhibitors of SNCA 5'UTR-driven reporter translation, confirmation, H4 neuroglioma cells, luminescence (AID 1988); type: functional, cell-based
[6] = Artemis endonuclease inhibitor potency, dose response, biochemical, fluorescence intensity (AID 720701); type: functional;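 also: Artemis endonuclease enzyme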
[7] = inhibitors of firefly luciferase expression or activity, dose response, H4 neuroglioma cells, luminescence (AID 1990); type: functional, cell-based
[8] = target: T2, NADPH oxidase 1 (Homo sapiens, UniProt Q9Y5S8); assay: NOX1 inhibitors, concentration-response, dose response, cell-based, luminescence, cherry picks 2 (AID 434997); type: functional
T2 sequence (Q9Y5S8 whole entry): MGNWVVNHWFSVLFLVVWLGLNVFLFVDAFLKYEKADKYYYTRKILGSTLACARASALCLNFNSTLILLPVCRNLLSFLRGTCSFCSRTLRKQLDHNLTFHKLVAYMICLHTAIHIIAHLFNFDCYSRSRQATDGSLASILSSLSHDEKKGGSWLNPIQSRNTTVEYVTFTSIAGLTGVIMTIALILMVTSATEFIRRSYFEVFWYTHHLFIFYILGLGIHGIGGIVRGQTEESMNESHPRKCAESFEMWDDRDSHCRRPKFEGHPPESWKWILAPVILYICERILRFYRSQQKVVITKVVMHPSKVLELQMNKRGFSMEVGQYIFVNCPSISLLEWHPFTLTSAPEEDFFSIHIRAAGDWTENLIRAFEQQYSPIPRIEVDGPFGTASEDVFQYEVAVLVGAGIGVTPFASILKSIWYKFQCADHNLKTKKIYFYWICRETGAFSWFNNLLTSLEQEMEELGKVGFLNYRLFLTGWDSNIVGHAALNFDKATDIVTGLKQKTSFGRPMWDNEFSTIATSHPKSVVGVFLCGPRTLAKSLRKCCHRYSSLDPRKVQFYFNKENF

[9] = target: T2, NADPH oxidase 1; assay: Late stage results from the probe development effort to identify inhibitors of NOX1: HEK/293 IC50. [Related pubchem assays: 1796 (Summary AID (NOX1)), 2752 (Primary screen (NOX1 inhibitors, synthesized analogs set 2)), 2664 (Primary screen (NOX1 inhibitors, synthesized analogs)), 1792 (Primary Screen (NOX1)), 2545 (Confirmation screen (NOX1 …; type: functional
[10] = HeLa cell cytotoxicity, dose response, cytotoxicity control, CellTiter-Glo luminescence, dry powder, set 2 (AID 720593); type: functional, cell-based
[11] = system: Streptococcus sp. 'group A'; assay: growth inhibition of control SK(-) GAS strain, dose response, counter-screen for streptokinase expression inhibitor project, luminescence, kanamycin, BacTiterGlo, confirmation (AID 1900); type: functional, organism-based
[12] = target: Nonstructural protein 1 (Influenza A virus, UniProt Q194T2); type: functional, Influenza A virus (A/California/07/2009(H1N1))
Nonstructural protein 1, sequence (Q194T2 whole entry): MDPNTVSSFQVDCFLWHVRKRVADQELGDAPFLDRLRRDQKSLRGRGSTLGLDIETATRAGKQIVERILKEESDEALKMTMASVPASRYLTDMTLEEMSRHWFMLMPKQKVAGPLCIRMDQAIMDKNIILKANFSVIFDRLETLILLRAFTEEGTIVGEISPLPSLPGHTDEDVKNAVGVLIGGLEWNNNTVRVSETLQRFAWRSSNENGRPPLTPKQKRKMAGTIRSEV

[13] = system: Streptococcus; assay: Group A Streptococcus viability loss, dose response, counter-screen for streptokinase expression inhibitor project, luminescence, BacTiterGlo (AID 1915); type: functional, organism-based;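 also: potency for reduction of bacterial viability or growth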
[14] = target: T3, Streptokinase A (Streptococcus pyogenes serotype M1, UniProt P10520); assay: S. pyogenes streptokinase expression inhibitors, potency, dose response, plasminogen activation absorbance, OD405 (AID 1914); type: functional, Streptococcus pyogenes M1 GAS;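 also: secreted streptokinase activity via plasminogen activation per viability signal from cell pellet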
T3 sequence (P10520 whole entry): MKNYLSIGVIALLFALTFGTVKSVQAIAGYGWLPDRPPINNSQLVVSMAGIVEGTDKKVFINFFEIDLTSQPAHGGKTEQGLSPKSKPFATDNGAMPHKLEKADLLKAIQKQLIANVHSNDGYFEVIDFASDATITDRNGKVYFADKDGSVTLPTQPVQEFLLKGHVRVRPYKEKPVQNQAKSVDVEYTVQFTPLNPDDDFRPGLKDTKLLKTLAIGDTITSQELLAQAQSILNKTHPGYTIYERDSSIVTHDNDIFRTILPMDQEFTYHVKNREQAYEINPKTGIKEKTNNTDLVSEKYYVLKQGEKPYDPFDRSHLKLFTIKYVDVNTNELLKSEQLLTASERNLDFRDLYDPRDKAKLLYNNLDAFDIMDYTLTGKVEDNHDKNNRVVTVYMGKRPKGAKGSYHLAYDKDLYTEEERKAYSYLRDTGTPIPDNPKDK

[15] = HEK293T cell cytotoxicity, dose response, cytotoxicity control, CellTiter-Glo luminescence, dry powder, set 2 (AID 720595); type: functional, cell-based; details: HEK293
[16] = target: Dual specificity tyrosine-phosphorylation-regulated kinase 1A (Rattus norvegicus, UniProt Q63470); type: biochemical, Homo sapiens
[17] = target: Bifunctional protein GlmU (Mycobacterium tuberculosis, UniProt P9WMN3); assay: Inhibitors of Mycobacterial Glucosamine-1-phosphate acetyl transferase (GlmU). Secondary screen.; parameters: species or system Mycobacterium tuberculosis H37Rv
Bifunctional protein GlmU, sequence (P9WMN3 whole entry): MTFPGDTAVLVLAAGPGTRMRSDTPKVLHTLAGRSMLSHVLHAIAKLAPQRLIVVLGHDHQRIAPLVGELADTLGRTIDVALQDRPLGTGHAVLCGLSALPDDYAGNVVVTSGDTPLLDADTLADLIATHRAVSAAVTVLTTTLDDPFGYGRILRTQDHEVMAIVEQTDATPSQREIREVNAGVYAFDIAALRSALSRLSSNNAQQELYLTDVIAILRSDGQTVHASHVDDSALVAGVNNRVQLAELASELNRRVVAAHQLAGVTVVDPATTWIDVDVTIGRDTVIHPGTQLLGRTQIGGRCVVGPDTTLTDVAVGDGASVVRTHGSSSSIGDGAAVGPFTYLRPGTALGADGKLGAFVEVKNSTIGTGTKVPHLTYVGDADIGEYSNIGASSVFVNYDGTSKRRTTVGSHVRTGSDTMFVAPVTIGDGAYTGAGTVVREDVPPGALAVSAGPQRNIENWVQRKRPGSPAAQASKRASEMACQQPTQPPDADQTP

[18] = system: Vero; assay: host cell cytotoxicity of antiviral hits, dose response, cytotoxicity control for West Nile virus antiviral project, secondary assay (AID 1650); type: functional; details: Chlorocebus sabaeus
[19] = target: T4, Estrogen receptor (Homo sapiens, UniProt P03372);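 also: potency for inhibiting coactivator peptide recruitment to the receptor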
T4 sequence (P03372 whole entry): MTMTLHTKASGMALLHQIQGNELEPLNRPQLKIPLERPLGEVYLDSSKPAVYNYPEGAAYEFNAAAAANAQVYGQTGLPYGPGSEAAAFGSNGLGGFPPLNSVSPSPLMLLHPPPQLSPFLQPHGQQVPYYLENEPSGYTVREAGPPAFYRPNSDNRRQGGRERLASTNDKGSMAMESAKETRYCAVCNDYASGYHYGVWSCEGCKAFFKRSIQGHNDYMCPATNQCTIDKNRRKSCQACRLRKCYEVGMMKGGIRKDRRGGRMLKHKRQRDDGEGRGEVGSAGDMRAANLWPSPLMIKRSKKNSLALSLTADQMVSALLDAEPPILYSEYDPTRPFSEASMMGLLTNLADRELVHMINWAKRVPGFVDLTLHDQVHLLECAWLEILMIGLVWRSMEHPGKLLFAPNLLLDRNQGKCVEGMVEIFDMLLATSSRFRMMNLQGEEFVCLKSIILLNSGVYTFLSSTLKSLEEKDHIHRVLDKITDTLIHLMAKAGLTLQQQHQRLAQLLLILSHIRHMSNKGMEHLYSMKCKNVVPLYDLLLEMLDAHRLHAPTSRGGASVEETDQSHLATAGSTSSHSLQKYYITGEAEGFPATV

[20] = target: Photoreceptor-specific nuclear receptor (Homo sapiens, UniProt Q9Y5X4); assay: NR2E3 inverse agonists, dose response, biochemical, TR-FRET (AID 463256); type: functional
Photoreceptor-specific nuclear receptor, sequence (Q9Y5X4 whole entry): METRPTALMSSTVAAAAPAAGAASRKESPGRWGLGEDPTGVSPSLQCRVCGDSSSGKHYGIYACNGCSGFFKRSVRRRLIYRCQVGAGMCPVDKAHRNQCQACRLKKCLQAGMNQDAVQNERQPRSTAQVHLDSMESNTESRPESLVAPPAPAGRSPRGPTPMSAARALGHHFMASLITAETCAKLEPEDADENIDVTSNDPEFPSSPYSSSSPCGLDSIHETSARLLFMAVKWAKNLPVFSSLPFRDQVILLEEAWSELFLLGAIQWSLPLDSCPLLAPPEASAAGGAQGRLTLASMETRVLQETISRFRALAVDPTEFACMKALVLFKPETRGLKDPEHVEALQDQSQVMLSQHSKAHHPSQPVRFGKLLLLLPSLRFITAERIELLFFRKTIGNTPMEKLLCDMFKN

[21] = target: Peroxisome proliferator-activated receptor gamma/Nuclear receptor corepressor 2 (Homo sapiens, UniProt P37231+Q9Y618); assay: Counterscreen for NR2E3 inverse agonists: TR-FRET-based biochemical high throughput dose response assay to identify inverse agonists of the interaction between peroxisome proliferator-activated receptor gamma (PPARg) and nuclear receptor co-repressor 2 (NCOR2).; type: functional
[22] = target: T5, Heat shock factor protein 1 (Mus musculus, UniProt P38532); assay: inhibition of MG132-induced HSE-luciferase signal, confirmation, cell-based, NIH3T3, luminescence, dose retest (AID 2382); type: functional;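 also: NIH3T3 fibroblasts with HSF1-driven luciferase reporter stressed by proteasome inhibitor MG132; luminescence from HSF1-driven luciferase expression after 8 hours of MG132 stress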
T5 sequence (P38532 whole entry): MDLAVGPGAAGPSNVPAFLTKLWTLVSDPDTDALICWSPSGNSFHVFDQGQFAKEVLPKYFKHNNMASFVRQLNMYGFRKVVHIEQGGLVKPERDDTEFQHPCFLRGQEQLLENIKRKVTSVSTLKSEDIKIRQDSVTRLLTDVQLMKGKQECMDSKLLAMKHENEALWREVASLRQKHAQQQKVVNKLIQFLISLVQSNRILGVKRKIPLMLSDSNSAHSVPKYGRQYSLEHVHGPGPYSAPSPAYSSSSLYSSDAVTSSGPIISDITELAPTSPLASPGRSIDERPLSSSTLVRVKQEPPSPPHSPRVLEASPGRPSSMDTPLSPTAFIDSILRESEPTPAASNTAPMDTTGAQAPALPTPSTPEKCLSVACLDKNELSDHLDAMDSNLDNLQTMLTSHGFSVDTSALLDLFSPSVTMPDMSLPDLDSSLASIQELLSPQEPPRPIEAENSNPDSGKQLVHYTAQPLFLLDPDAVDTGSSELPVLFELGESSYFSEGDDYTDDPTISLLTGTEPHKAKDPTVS

[23] = target: 5-hydroxytryptamine receptor 1A (Homo sapiens, UniProt P08908); type: functional
5-hydroxytryptamine receptor 1A, sequence (P08908 whole entry): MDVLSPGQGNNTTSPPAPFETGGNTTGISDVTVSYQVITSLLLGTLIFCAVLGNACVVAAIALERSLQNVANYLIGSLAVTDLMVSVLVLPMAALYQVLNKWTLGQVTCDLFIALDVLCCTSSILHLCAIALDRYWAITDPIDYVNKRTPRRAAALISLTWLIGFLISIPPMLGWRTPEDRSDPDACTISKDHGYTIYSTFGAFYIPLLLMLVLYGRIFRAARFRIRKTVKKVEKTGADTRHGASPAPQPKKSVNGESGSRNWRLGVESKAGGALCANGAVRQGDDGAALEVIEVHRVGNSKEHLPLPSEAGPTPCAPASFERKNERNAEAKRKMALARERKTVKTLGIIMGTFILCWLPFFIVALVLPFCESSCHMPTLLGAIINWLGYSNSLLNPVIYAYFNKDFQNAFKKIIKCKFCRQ

[24] = target: Ephrin type-A receptor 4 (Mus musculus, UniProt Q03137); assay: inhibitors of EphA4 binding to KYL peptide, primary screen, biochemical, colorimetric, mouse EphA4 (AID 689); type: functional
[25] = A549 cell cytotoxicity, dose response, cytotoxicity control, 24 h, CellTiter-Glo luminescence, cherry-picks (AID 1053115); type: functional, cell-based; details: A549, 24 h
[26] = target: Vasopressin V1b receptor (Homo sapiens, UniProt P47901); assay: Late-stage results from the probe development effort to identify antagonists of arginine vasopressin receptor 1a (AVPR1a): fluorescence-based cell-based dose response AVPR1b inhibition counterscreen assay.; type: functional
Vasopressin V1b receptor, sequence (P47901 whole entry): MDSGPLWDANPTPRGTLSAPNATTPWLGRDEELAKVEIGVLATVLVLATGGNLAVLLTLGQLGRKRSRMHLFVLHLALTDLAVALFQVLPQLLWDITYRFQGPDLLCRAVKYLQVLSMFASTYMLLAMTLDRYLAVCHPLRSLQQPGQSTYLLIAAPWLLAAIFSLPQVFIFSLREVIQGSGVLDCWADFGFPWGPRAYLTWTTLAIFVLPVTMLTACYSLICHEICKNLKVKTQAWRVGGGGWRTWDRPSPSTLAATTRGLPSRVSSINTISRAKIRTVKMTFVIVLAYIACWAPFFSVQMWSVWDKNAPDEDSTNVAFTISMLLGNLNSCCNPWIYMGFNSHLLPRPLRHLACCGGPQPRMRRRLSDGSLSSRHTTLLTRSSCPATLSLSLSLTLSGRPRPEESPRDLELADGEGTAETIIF

[27] = Late-stage results from the probe development effort to identify antagonists of arginine vasopressin receptor 1a (AVPR1a): fluorescence-based cell-based dose response AVPR1a inhibition assay.; type: functional
[28] = target: Vasopressin V2 receptor (Homo sapiens, UniProt P30518); assay: Late-stage results from the probe development effort to identify antagonists of arginine vasopressin receptor 1a (AVPR1a): fluorescence-based cell-based dose response AVPR2 inhibition counterscreen assay.; type: functional
Vasopressin V2 receptor, sequence (P30518 whole entry): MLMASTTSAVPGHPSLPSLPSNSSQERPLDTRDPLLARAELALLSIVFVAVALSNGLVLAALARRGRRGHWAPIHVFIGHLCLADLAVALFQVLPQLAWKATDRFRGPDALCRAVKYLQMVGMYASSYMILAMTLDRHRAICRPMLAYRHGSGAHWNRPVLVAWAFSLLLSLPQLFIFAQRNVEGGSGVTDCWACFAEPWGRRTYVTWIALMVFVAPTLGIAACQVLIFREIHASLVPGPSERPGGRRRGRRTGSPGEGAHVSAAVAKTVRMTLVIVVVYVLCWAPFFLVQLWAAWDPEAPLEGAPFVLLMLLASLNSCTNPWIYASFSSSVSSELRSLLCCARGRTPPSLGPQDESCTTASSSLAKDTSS

[29] = Late-stage results from the probe development effort to identify antagonists of arginine vasopressin receptor 1a (AVPR1a): fluorescence-based cell-based dose response OXTR inhibition counterscreen assay.; type: functional
[30] = P. falciparum Dd2 growth inhibitors, dose response, SYBR Green, cherry-picked samples (AID 1159567); type: functional, cell-based
[31] = HepG2 cell cytotoxicity, dose response, cytotoxicity control, cherry-picked samples (AID 1159577); type: functional, cell-based
[32] = target: G-protein coupled receptor 183 (Homo sapiens, UniProt P32249); assay: SAR confirmation of small molecule antagonists of the EBI2 receptor via a luminescent beta-arrestin assa.; type: functional
G-protein coupled receptor 183, sequence (P32249 whole entry): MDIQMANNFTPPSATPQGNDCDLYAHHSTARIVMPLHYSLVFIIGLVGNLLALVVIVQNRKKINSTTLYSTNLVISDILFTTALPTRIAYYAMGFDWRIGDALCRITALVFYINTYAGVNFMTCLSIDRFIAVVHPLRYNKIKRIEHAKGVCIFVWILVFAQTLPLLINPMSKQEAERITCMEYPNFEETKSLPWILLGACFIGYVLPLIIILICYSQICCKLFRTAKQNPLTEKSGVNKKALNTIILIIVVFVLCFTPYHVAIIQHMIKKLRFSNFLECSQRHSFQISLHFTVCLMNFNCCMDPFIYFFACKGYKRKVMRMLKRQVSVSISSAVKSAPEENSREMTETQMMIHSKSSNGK

[33] = HCT116 cell viability decrease, GSK3B pretreatment – CellTiter-Glo, IC50, dose response (AID 1117339); type: functional; details: HCT-116
[34] = cytotoxicity toward HT-29 cells – cell-based, CellTiter-Glo luminescence, IC50, dose response (AID 1117330); type: functional
[35] = cytotoxicity toward HCT116 cells – cell-based, CellTiter-Glo luminescence, IC50, dose response (AID 1117332); type: functional; details: HCT-116
[36] = SNU-C1 cell viability reduction, dose response, CellTiter-Glo luminescence (AID 1117323); type: functional, cell-based
[37] = Concentration-dependent survival of SW480 colon cancer line, luminescence detection with CellTiter-Glo, half-maximal inhibitory concentration (AID 1117338); type: functional
[38] = cytotoxicity toward Colo320 cells – cell-based, CellTiter-Glo luminescence, IC50, dose response (AID 1117334); type: functional; details: COLO 320
[39] = RKO cell viability reduction, dose response, CellTiter-Glo luminescence (AID 1117322); type: functional
[40] = CellTiter-Glo luminescent dose response of DLD-1 viability loss (AID 1117352); type: functional

## Cc1nc(CS(=O)(=O)c2ccc(Cl)cc2)sc1C(=O)O
[1]
  IC50: 12.1 µM (not active)

## O=C(O)c1cc(Cl)ccc1Nc1nc2cc(Cl)ccc2o1
[2]
  EC50: 107 µM (not active)
[3]
  EC50: 11.7 µM (active)

## CSc1nnc2c3cc(C)ccc3n(Cc3ccccc3)c2n1
[4]
  EC50: > 120 µM (not active)
[5]
  EC50: > 120 µM (not active)
[6]
  IC50: 19.8 µM (active)
[7]
  EC50: > 120 µM (not active)

## Cc1cc(Cl)ccc1NC(=S)NNC(=S)Nc1ccc(F)cc1
[8]
  IC50: 0.67 µM (active)
[9]
  IC50: 0.96 µM (active)

## Cc1ccc(C(=O)Nc2nc(-c3ccccn3)cs2)o1
[10]
  AC50: > 52 µM (inactive)
[11]
  EC50: 17.9 µM (active)
[12]
  IC50: 10.1 µM (active)
[13]
  EC50: > 150 µM (not active)
[14]
  EC50: > 150 µM (not active)
[15]
  AC50: 29.1 µM (active)

## CC(C)S(=O)(=O)C1=NSC2=NC(=O)/C(=C\c3ccc(-c4cccc(C(=O)O)c4)o3)C(=N)N21
[16]
  AC50: 8.1 µM (active)
[17]
  IC50: 13.5 µM (active)

## Cn1cc([N+](=O)[O-])c(C(=O)Nc2ccn(Cc3c(F)c(F)cc(F)c3F)n2)n1
[18]
  CC50: 20.8 µM (active)

## Fc1ccc(CNc2nc3ccccc3n3cnnc23)cc1
[19]
  IC50: > 50 µM (not active)
[20]
  IC50: 2.69 µM (active)
[21]
  IC50: 1.42 µM (active)

## COc1cc(CN2CCN(c3cccc(C)c3C)CC2)cc(OC)c1O
[22]
  EC50: > 195 µM (not active)
[23]
  EC50: > 50 µM (not active)

## O=C1/C(=C\c2ccco2)SC(=S)N1Cc1ccccc1
[24]
  IC50: 3.21 µM (active)

## O=C(Nc1ccc2c(c1)[C@@H]1C[C@@H](CC(=O)N3CCCCC3)O[C@@H](CO)[C@@H]1O2)Nc1ccccc1F
[25]
  AC50: 47.8 µM (active)

## Cc1ccnc(N2CCN(C(=O)N(CC3CC3)c3ccc(Cl)cc3)CC2)c1
[26]
  IC50: > 50 µM (inactive)
[27]
  IC50: 0.0158 µM (active)
[28]
  IC50: > 50 µM (inactive)
[29]
  IC50: > 50 µM (inactive)

## COc1ccc2c3c([nH]c2c1)[C@@H](CO)N(C(=O)Nc1ccc(F)cc1)CC31CN(Cc2ccccc2OC)C1
[30]
  AC50: 3.7 µM (active)
[31]
  AC50: 9.77 µM (active)

## O=C(/C=C/c1ccccc1C(F)(F)F)N1CCN(S(=O)(=O)c2ccc(Br)cc2)CC1
[32]
  IC50: 0.31 µM (active)

## CCCCCCCCCCCCCCCCCCOP(=O)([O-])OC1CC[N+](C)(C)CC1 [PERIFOSINE]
[33]
  IC50: 5.79 µM (inactive)
[34]
  IC50: 6.9 µM (inactive)
[35]
  IC50: 3.17 µM (active)
[36]
  IC50: > 20 µM (inactive)
[37]
  IC50: 0.852 µM (active)
[38]
  IC50: 2.36 µM (active)
[39]
  IC50: 2.1 µM (active)
[40]
  IC50: > 20 µM (inactive)
